Data as given in patent US11807650B2, “NMDA receptor modulators and uses thereof” (Novartis AG, priority 2016, dated 2023).
Structures can show the parent of a compound that is named as a salt.

What follows are compounds tested against T1, human GRIN1 (transcript variant NR1-3) and GRIN2D expressed in Xenopus oocytes (Homo sapiens, UniProt O15399) (assay: NR2D oocyte potentiation assay (two-electrode voltage clamp)). Details: 10 uM test compound; glutamate and glycine 10 μM each; holding potential −40 mV.
T1 construct: GenScript (GRIN2D synthesis) SC115601; host or cells: Xenopus oocytes injected with cRNA (1 GluN1 : 2 GluN2)
T1 sequence (O15399 28-1336, other chains not shown): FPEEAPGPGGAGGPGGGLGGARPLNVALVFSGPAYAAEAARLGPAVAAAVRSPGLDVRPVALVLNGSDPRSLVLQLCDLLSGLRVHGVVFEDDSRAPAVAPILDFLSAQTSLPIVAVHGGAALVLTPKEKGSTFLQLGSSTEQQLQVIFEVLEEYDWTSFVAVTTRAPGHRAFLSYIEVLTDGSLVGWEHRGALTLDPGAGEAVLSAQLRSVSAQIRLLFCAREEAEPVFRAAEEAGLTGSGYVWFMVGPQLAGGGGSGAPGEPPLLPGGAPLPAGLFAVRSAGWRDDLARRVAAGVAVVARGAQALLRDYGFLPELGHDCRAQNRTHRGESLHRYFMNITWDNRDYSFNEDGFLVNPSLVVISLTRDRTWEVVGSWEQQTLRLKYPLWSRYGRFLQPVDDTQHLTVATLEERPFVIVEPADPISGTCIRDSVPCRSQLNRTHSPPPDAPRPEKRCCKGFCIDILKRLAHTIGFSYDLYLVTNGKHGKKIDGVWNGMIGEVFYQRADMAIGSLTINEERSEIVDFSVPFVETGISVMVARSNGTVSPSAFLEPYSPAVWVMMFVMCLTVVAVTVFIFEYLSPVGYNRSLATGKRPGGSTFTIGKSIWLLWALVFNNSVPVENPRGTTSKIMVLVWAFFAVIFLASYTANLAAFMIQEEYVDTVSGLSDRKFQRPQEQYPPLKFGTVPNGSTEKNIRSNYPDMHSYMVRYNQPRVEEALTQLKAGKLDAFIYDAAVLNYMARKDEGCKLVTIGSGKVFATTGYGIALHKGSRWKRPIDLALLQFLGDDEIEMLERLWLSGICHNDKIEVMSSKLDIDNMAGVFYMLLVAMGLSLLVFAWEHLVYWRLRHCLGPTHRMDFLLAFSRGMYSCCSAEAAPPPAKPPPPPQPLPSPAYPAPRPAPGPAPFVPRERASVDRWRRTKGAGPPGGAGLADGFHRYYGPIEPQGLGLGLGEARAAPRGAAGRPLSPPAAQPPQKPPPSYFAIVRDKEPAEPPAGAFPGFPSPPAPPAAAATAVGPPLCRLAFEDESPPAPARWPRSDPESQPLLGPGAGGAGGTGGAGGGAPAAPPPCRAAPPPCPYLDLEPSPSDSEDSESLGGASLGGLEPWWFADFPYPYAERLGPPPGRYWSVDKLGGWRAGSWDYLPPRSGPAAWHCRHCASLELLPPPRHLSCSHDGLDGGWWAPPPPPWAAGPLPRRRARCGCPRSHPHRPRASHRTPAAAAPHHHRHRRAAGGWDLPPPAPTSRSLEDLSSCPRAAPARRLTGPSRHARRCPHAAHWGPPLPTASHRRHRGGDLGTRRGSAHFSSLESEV
Format: cell-based
Procedure, shortened: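 Xenopus oocytes were defolliculated with collagenase, then injected with 50 nL of cRNA encoding human GluN1 (NR1-3 variant) and GluN2D mixed 1:2 and kept 72 h at 16° C. Two-electrode voltage clamp at −40 mV recorded currents; after 10 μM glutamate plus 10 μM glycine reached plateau, test compound was added until a new plateau formed.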
`CC1CSc2cc(-c3ccc(C4(C)CC4)nc3)c(C#N)c(=O)n2C1` (centres unmarked) [Example 72, 3-methyl-8-(6-(1-methylcyclopropyl)pyridin-3-yl)-6-oxo-3,4-dihydro-2H,6H-pyrido[2,1-b][1,3]thiazine-7-carbonitrile] gave an activation at 10 µM greater than 1000%.
`CCOC(C)(C)c1ccc(-c2nc3n(c(=O)c2C#N)CC(C)CS3)cn1` (centres unmarked) [Example 121, 8-(6-(2-ethoxypropan-2-yl)pyridin-3-yl)-3-methyl-6-oxo-3,4-dihydro-2H,6H-pyrimido[2,1-b][1,3]thiazine-7-carbonitrile] was tested, and the “NR2D Oocyte % Potentiation @ 10 uM” value was “Inhibitor”.
`C[C@@H]1CSc2cc(-c3cnc(C(C)(C)C)c(F)c3)c(C#N)c(=O)n2C1` [Example 107, (S)-8-(6-(tert-butyl)-5-fluoropyridin-3-yl)-3-methyl-6-oxo-3,4-dihydro-2H,6H-pyrido[2,1-b][1,3]thiazine-7-carbonitrile] showed an activation at 10 µM of 500 to 1000%.
Work on `CN1CCCn2c1nc(-c1ccc(C(C)(C)C)nc1)c(C#N)c2=O` [Example 94, 8-(6-(tert-butyl)pyridin-3-yl)-1-methyl-6-oxo-1,3,4,6-tetrahydro-2H-pyrimido[1,2-a]pyrimidine-7-carbonitrile] yielded an activation at 10 µM of 100 to 500%.
For `CC1CSc2nc(-c3ccc(C4(C)CC4)nc3)c(C#N)c(=O)n2C1` (centres unmarked) [Example 108, 3-methyl-8-(6-(1-methylcyclopropyl)pyridin-3-yl)-6-oxo-3,4-dihydro-2H,6H-pyrimido[2,1-b][1,3]thiazine-7-carbonitrile], the activation at 10 µM was 500 to 1000%.
Work on `C[C@H]1CSc2cc(-c3cnc(C(C)(C)C)nc3)c(C#N)c(=O)n2C1` [Example 104, (R)-8-(2-(tert-butyl)pyrimidin-5-yl)-3-methyl-6-oxo-3,4-dihydro-2H,6H-pyrido[2,1-b][1,3]thiazine-7-carbonitrile] yielded an activation at 10 µM greater than 1000%.
`CC(C)(C)c1ccc(-c2nc3n(c(=O)c2C#N)C[C@H](CF)CS3)cn1` [Example 132, (R)-8-(6-(tert-butyl)pyridin-3-yl)-3-(fluoromethyl)-6-oxo-3,4-dihydro-2H,6H-pyrimido[2,1-b][1,3]thiazine-7-carbonitrile] was tested, and the activation at 10 µM was 100 to 500%.
`CC(C)(C)c1ccc(-c2nc3n(c(=O)c2C#N)C[C@@H](CF)CS3)cn1` [Example 131, (S)-8-(6-(tert-butyl)pyridin-3-yl)-3-(fluoromethyl)-6-oxo-3,4-dihydro-2H,6H-pyrimido[2,1-b][1,3]thiazine-7-carbonitrile] showed an activation at 10 µM greater than 1000%.
In the case of `CC(C)(C)c1ccc(-c2nc3n(c(=O)c2C#N)CC(CN)CS3)cn1` (centres unmarked) [Example 145, 3-(aminomethyl)-8-(6-(tert-butyl)pyridin-3-yl)-6-oxo-3,4-dihydro-2H,6H-pyrimido[2,1-b][1,3]thiazine-7-carbonitrile hydrochloride], the activation at 10 µM is reported as 10 to 100%.
With `CC(C)(C)c1ncc(-c2nc3n(c(=O)c2C#N)CC(CO)CS3)cn1` (centres unmarked) [Example 90, 8-(2-(tert-butyl)pyrimidin-5-yl)-3-(hydroxymethyl)-6-oxo-3,4-dihydro-2H,6H-pyrimido[2,1-b][1,3]thiazine-7-carbonitrile] the activation at 10 µM was 500 to 1000%.
For `CC(C)(C)c1ncc(-c2nc3n(c(=O)c2C#N)CC(CN2CCCC2)CS3)cc1F` (centres unmarked) [Example 159, 8-(6-(tert-butyl)-5-fluoropyridin-3-yl)-6-oxo-3-(pyrrolidin-1-ylmethyl)-3,4-dihydro-2H,6H-pyrimido[2,1-b][1,3]thiazine-7-carbonitrile], the activation at 10 µM was 10 to 100%.
`CC1CSc2cc(-c3cnc(C(C)(C)C)c(F)c3)c(C#N)c(=O)n2C1` (centres unmarked) [Example 103, 8-(6-(tert-butyl)-5-fluoropyridin-3-yl)-3-methyl-6-oxo-3,4-dihydro-2H,6H-pyrido[2,1-b][1,3]thiazine-7-carbonitrile] gave an activation at 10 µM greater than 1000%.
Compound `CC(C)(C)c1ccc(-c2nc3n(c(=O)c2Br)CCCC3)cc1` [Example 13, 3-bromo-2-(4-(tert-butyl)phenyl)-6,7,8,9-tetrahydro-4H-pyrido[1,2-a]pyrimidin-4-one] has an activation at 10 µM of less than 10%.
Compound `C[C@@H]1CSc2cc(-c3ccc(C(C)(C)C)nc3)c(C#N)c(=O)n2C1` [Example 97, (S)-8-(6-(tert-butyl)pyridin-3-yl)-3-methyl-6-oxo-3,4-dihydro-2H,6H-pyrido[2,1-b][1,3]thiazine-7-carbonitrile] has an activation at 10 µM greater than 1000%.
In the case of `CC1CSc2nc(-c3cnc(C(C)(C)C)c(F)c3)c(C#N)c(=N)n2C1` (centres unmarked) [Example 41, 8-(6-(tert-butyl)-5-fluoropyridin-3-yl)-6-imino-3-methyl-3,4-dihydro-2H,6H-pyrimido[2,1-b][1,3]thiazine-7-carbonitrile], the activation at 10 µM is reported as greater than 1000%.
`C[C@@H]1CSc2nc(-c3cnc(C(C)(C)C)c(F)c3)c(C#N)c(=N)n2C1` [Example 113, (S)-8-(6-(tert-butyl)-5-fluoropyridin-3-yl)-6-imino-3-methyl-3,4-dihydro-2H,6H-pyrimido[2,1-b][1,3]thiazine-7-carbonitrile] showed an activation at 10 µM greater than 1000%.
`COC[C@@H]1CSc2nc(-c3cnc(C(C)(C)C)c(F)c3)c(C#N)c(=O)n2C1` [Example 167, (R)-8-(6-(tert-butyl)-5-fluoropyridin-3-yl)-3-(methoxymethyl)-6-oxo-3,4-dihydro-2H,6H-pyrimido[2,1-b][1,3]thiazine-7-carbonitrile] showed an activation at 10 µM greater than 1000%.
`CC1CSc2nc(-c3cnc(C(C)(C)C)c(O)c3)c(C#N)c(=O)n2C1` (centres unmarked) [Example 126, 8-(6-(tert-butyl)-5-hydroxypyridin-3-yl)-3-methyl-6-oxo-3,4-dihydro-2H,6H-pyrimido[2,1-b][1,3]thiazine-7-carbonitrile] was tested, and the activation at 10 µM was greater than 1000%.
`N#Cc1c(-c2ccc(N3CC(F)(F)C3)nc2)nc2n(c1=O)CCCS2` [Example 55, 8-(6-(3,3-difluoroazetidin-1-yl)pyridin-3-yl)-6-oxo-3,4-dihydro-2H,6H-pyrimido[2,1-b][1,3]thiazine-7-carbonitrile] was tested, and the “NR2D Oocyte % Potentiation @ 10 uM” value was “Inhibitor”.
With `CC(C)(C)c1ncc(-c2nc3n(c(=O)c2C#N)C[C@H](CF)CS3)cn1` [Example 142, (R)-8-(2-(tert-butyl)pyrimidin-5-yl)-3-(fluoromethyl)-6-oxo-3,4-dihydro-2H,6H-pyrimido[2,1-b][1,3]thiazine-7-carbonitrile] the activation at 10 µM was 500 to 1000%.
With `COc1cc(-c2nc3n(c(=O)c2C#N)CC(C)CS3)cnc1C(C)(C)C` (centres unmarked) [Example 59, 8-(6-(tert-butyl)-5-methoxypyridin-3-yl)-3-methyl-6-oxo-3,4-dihydro-2H,6H-pyrimido[2,1-b][1,3]thiazine-7-carbonitrile] the activation at 10 µM was greater than 1000%.
In the case of `CSCC1COc2nc(-c3cnc(C(C)(C)C)c(F)c3)c(C#N)c(=O)n2C1` (centres unmarked) [Example 164, 8-(6-(tert-butyl)-5-fluoropyridin-3-yl)-3-((methylthio)methyl)-6-oxo-3,4-dihydro-2H,6H-pyrimido[2,1-b][1,3]oxazine-7-carbonitrile], the activation at 10 µM is reported as 10 to 100%.
For `CC(C)(C)c1ncc(-c2nc3n(c(=O)c2C#N)CC(C(=O)N2CCOCC2)CS3)cc1F` (centres unmarked) [Example 162, 8-(6-(tert-butvl)-5-fluoropyndin-3-yl)-3-(morpholine-4-carbonyl)-6-oxo-3,4-dihydro-2H,6H-pyrimido[2,1-b][1,3]thiazine-7-carbonitrile], the activation at 10 µM was 100 to 500%.
In the case of `C[C@H]1CSc2cc(-c3ccc(C(C)(C)C)nc3)c(C#N)c(=O)n2C1` [Example 96, (R)-8-(6-(tert-butyl)pyridin-3-yl)-3-methyl-6-oxo-3,4-dihydro-2H,6H-pyrido[2,1-b][1,3]thiazine-7-carbonitrile], the activation at 10 µM is reported as greater than 1000%.
In the case of `C[C@@H]1CSc2cc(-c3ccc(C4(C)CC4)nc3)c(C#N)c(=O)n2C1` [Example 118, (S)-3-methyl-8-(6-(1-methylcyclopropyl)pyridin-3-yl)-6-oxo-3,4-dihydro-2H,6H-pyrido[2,1-b][1,3]thiazine-7-carbonitrile], the activation at 10 µM is reported as greater than 1000%.
In the case of `C[C@@H]1CSc2nc(-c3ccc(C4(C)CC4)nc3)c(C#N)c(=O)n2C1` [Example 116, (S)-3-methyl-8-(6-(1-methylcyclopropyl)pyridin-3-yl)-6-oxo-3,4-dihydro-2H,6H-pyrimido[2,1-b][1,3]thiazine-7-carbonitrile], the activation at 10 µM is reported as greater than 1000%.
`CC(C)(C)c1ccc(-c2nc3n(c(=O)c2C#N)CCCC3)cc1` [Example 23, 2-(4-(tert-butyl)phenyl)-4-oxo-6,7,8,9-tetrahydro-4H-pyrido[1,2-a]pyrimidine-3-carbonitrile] showed an activation at 10 µM of 10 to 100%.
`CC(C)(C)c1ncc(-c2nc3n(c(=O)c2C#N)CCCS3)cc1F` [Example 75, 8-(6-(tert-butyl)-5-fluoropyridin-3-yl)-6-oxo-3,4-dihydro-2H,6H-pyrimido[2,1-b][1,3]thiazine-7-carbonitrile] showed an activation at 10 µM greater than 1000%.
For `C[C@H]1CSc2nc(-c3ccc(C4(C)CC4)nc3)c(C#N)c(=O)n2C1` [Example 115, (R)-3-methyl-8-(6-(1-methylcyclopropyl)pyridin-3-yl)-6-oxo-3,4-dihydro-2H,6H-pyrimido[2,1-b][1,3]thiazine-7-carbonitrile], the activation at 10 µM was 100 to 500%.
`C[C@@H]1CSc2cc(-c3cnc(C(C)(C)C)nc3)c(C#N)c(=O)n2C1` [Example 105, (S)-8-(2-(tert-butyl)pyrimidin-5-yl)-3-methyl-6-oxo-3,4-dihydro-2H,6H-pyrido[2,1-b][1,3]thiazine-7-carbonitrile] showed an activation at 10 µM greater than 1000%.
For `C[C@H]1CSc2cc(-c3cnc(C(C)(C)C)c(F)c3)c(C#N)c(=O)n2C1` [Example 106, (R)-8-(6-(tert-butyl)-5-fluoropyridin-3-yl)-3-methyl-6-oxo-3,4-dihydro-2H,6H-pyrido[2,1-b][1,3]thiazine-7-carbonitrile], the activation at 10 µM was greater than 1000%.
Compound `CC1CSc2cc(-c3cnc(C(C)(C)C)nc3)c(C#N)c(=O)n2C1` (centres unmarked) [Example 71, 8-(2-(tert-butyl)pyrimidin-5-yl)-3-methyl-6-oxo-3,4-dihydro-2H,6H-pyrido[2,1-b][1,3]thiazine-7-carbonitrile] has an activation at 10 µM greater than 1000%.
